Data on 9 compounds can be found in patent US20180008587A1, “THIOHYDANTOIN ANDROGEN RECEPTOR ANTAGONISTS FOR THE TREATMENT OF CANCER” (Jaressen Pharmaceutica NV, priority 2016, published 2018).

What all share (format): cell-based
Experiment [1] has as its target T1, F876L mutant Androgen Receptor (AR-F876L) (Homo sapiens, UniProt P10275, F877L).
T1 construct: expressed in transfected cells; host or cells: LNCaP (LNCaP F876L)
T1 sequence (P10275 1-920 F877L): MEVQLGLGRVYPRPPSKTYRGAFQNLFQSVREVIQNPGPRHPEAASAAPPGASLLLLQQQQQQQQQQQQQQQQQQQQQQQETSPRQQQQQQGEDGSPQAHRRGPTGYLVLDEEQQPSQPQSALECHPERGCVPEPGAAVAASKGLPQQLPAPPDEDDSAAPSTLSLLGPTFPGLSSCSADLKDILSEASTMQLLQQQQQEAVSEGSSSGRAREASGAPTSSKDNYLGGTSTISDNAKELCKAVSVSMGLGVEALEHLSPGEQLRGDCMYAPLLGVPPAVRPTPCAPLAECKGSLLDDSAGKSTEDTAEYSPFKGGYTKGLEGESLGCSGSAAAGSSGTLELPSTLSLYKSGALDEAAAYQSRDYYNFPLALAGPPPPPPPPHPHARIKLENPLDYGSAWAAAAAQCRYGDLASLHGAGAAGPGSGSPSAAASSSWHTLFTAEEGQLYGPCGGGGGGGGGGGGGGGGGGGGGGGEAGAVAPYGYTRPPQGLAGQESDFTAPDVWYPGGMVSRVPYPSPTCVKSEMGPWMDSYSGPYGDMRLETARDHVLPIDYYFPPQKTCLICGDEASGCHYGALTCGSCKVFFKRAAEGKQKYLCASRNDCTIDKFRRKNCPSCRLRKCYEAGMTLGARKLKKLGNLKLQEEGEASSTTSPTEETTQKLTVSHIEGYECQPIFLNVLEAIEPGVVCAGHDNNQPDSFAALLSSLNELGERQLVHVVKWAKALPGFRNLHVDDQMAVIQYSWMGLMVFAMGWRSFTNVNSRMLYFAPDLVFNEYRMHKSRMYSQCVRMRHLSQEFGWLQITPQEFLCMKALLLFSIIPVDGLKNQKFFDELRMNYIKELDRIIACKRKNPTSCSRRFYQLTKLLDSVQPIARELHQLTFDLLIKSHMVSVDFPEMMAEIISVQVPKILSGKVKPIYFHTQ
As to the kind of experiment: LNCaP-AR-F876L AG reporter assay (ARE firefly luciferase, agonist mode). The settings on record: for Emax: read-out: LNCaP-AR-F876L AG MAX % Stim. The method in brief: (§1)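 Cells: stable LNCaP pools, AR-wt or AR-F876L, in charcoal-stripped serum. Agonist challenge for antagonist mode was 400 pM (WT) and 600 pM (F876L). Luminescence was measured after 20-24 h incubation.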
For orientation: In a reporter assay the amount or activity of a reporter protein is the signal.

The target in experiment [2] is T2, wild-type Androgen Receptor (AR-wt) (Homo sapiens, UniProt P10275).
T2 construct: expressed in transfected cells; host or cells: LNCaP (LNCaP AR (cs))
T2 sequence (P10275 1-920): T1 sequence (P10275 1-920 F877L) with L877F
As to the kind of experiment: LNCaP-AR-wt ANT reporter assay (ARE firefly luciferase, antagonist mode). The settings on record: for IC50: antagonist mode, 400 pM R-1881 challenge, −Log10(IC50 [Molar]), read-out: LNCaP-AR-wt ANT pIC50 (converted); for Emax: read-out: LNCaP-AR-wt ANT MAX % Inh. The procedure, abridged: (§2)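 Read-out is luciferase luminescence taken 1 h after Steady-Glo addition, following 20-24 h compound exposure at 37 °C in LNCaP pools stably carrying wild-type or F876L AR. Cells were grown in charcoal-stripped serum. Antagonist wells received agonist at 400 pM (WT) or 600 pM (F876L).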

In experiment [3] the target is T1, F876L mutant Androgen Receptor (AR-F876L). The experiment can be described thus: LNCaP-AR-F876L ANT reporter assay (ARE firefly luciferase, antagonist mode). The settings on record: for Emax: read-out: LNCaP-AR-F876L ANT MAX % Inh; for IC50: read-out: LNCaP-AR-F876L ANT pIC50 (converted). The procedure, abridged:
as §2

In experiment [4] the target is T2, wild-type Androgen Receptor (AR-wt). The experiment can be described thus: LNCaP-AR-wt AG reporter assay (ARE firefly luciferase, agonist mode). The conditions noted are these: for Emax: read-out: LNCaP-AR-wt AG MAX % Stim. The method in brief:
as §1

The mark [5] stands for this setting: agonist mode, −Log10(EC50 [Molar]), read-out: LNCaP-AR-F876L AG pEC50 (converted).
Setting [6] is: maximum % inhibition of R1881 control response over tested concentration range.
[7] abbreviates: agonist mode, −Log10(EC50 [Molar]), read-out: LNCaP-AR-wt AG pEC50 (converted).
The mark [8] stands for this setting: maximum % stimulation (agonist response) over tested concentration range.

The structures appear in SMILES notation. Substitutions are numbered along the chain they refer to. Read-outs that look alike come from different tables or passages of the source.

With `N#Cc1ncc(N2C(=O)C3(CCC3)N(c3ccc(C(=O)NCCCN4CCOCC4)c(F)c3)C2=S)cc1C(F)(F)F` [Cpd 72, 4-[6-[6-cyano-5-(trifluoromethyl)-3-pyridyl]-5-oxo-7-thioxo-6,8-diazaspiro[3.4]octan-8-yl]-2-fluoro-N-(3-morpholinopropyl)benzamide], the EC50 in experiment [1] and in experiment [4] was > 15.1 µM each time. The Emax is 0.6% in experiment [1], 102% in experiment [2], 101% in experiment [3] and 0.3% in experiment [4]. For the same compound, the IC50 in experiment [2] is 0.251 µM; in experiment [3], 0.102 µM.
Regarding `N#Cc1ncc(N2C(=O)C3(CCC3)N(c3ccc(OC(F)(F)F)cc3)C2=S)cc1C(F)(F)F` [Cpd 38, 5-[5-oxo-7-thioxo-8-[4-(trifluoromethoxy)phenyl]-6,8-diazaspiro[3.4]octan-6-yl]-3-(trifluoromethyl)pyridine-2-carbonitrile], the EC50 in experiment [1] (setting [5]) and in experiment [4] (setting [7]) was > 15.1 µM throughout. The Emax in experiment [1] was found to be 0.3%; in experiment [2] (setting [6]) it was 100%; in experiment [3] (setting [6]) it was 99%; in experiment [4], 1.2%. In addition, the IC50 in experiment [2] was 0.398 µM; in experiment [3], 0.229 µM.
Turning to `N#Cc1ncc(N2C(=O)C3(CCC3)N(c3ccc(C(=O)NCc4cccc(Cl)c4)c(F)c3)C2=S)cc1C(F)(F)F` [Cpd 95, N-[(3-chlorophenyl)methyl]-4-[6-[6-cyano-5-(trifluoromethyl)-3-pyridyl]-5-oxo-7-thioxo-6,8-diazaspiro[3.4]octan-8-yl]-2-fluoro-benzamide], the EC50 in experiment [1] (setting [5]) and in experiment [4] (setting [7]) was > 15.1 µM in each case. In addition, the Emax in experiment [1] (setting [8]) worked out at 1.5%; in experiment [2] (setting [6]) it was 96.1%; in experiment [3] (setting [6]), 92.3%; in experiment [4] (setting [8]), 0.2%. Moreover, the IC50 is 0.794 µM in experiment [2] and 1.05 µM in experiment [3].
Consider `CN1CCC(NC(=O)c2ccc(N3C(=S)N(c4cnc(C#N)c(C(F)(F)F)c4)C(=O)C34CCC4)cc2F)CC1` [Cpd 109, 4-[6-[6-cyano-5-(trifluoromethyl)-3-pyridyl]-5-oxo-7-thioxo-6,8-diazaspiro[3.4]octan-8-yl]-2-fluoro-N-(1-methyl-4-piperidyl)benzamide], for which the EC50 in experiment [1] (setting [5]) and in experiment [4] (setting [7]) was > 15.1 µM throughout. Also, the Emax came to 1.1% in experiment [1] (setting [8]), 97.9% in experiment [2] (setting [6]), 98.4% in experiment [3] (setting [6]) and 0.2% in experiment [4] (setting [8]). The results for the IC50 in experiment [2] and in experiment [3] were 1.95 µM and 0.741 µM, respectively.
For `COCCCNC(=O)c1ccc(N2C(=S)N(c3cnc(C#N)c(C(F)(F)F)c3)C(=O)C23CCC3)cc1F` [Cpd 24, 4-[6-[6-cyano-5-(trifluoromethyl)-3-pyridyl]-5-oxo-7-thioxo-6,8-diazaspiro[3.4]octan-8-yl]-2-fluoro-N-(3-methoxypropyl)benzamide], the EC50 in experiment [1] (setting [5]) and in experiment [4] (setting [7]) was > 15.1 µM in each case. Besides, the Emax in experiment [1] (setting [8]) stood at 0.1%; in experiment [2] (setting [6]), 100%; in experiment [3] (setting [6]), 99.5%; in experiment [4] (setting [8]), 0%. For the same compound, the IC50 in experiment [2] is 0.331 µM; in experiment [3] it was 0.229 µM.
Consider `CC(C)CCNC(=O)c1ccc(N2C(=S)N(c3cnc(C#N)c(C(F)(F)F)c3)C(=O)C23CCC3)cc1F` [Cpd 27, 4-[6-[6-cyano-5-(trifluoromethyl)-3-pyridyl]-5-oxo-7-thioxo-6,8-diazaspiro[3.4]octan-8-yl]-2-fluoro-N-isopentyl-benzamide], for which the EC50 in experiment [1] and in experiment [4] was > 15.1 µM throughout. Also, the Emax came out at 0.2% in experiment [1], 96.8% in experiment [2], 98.8% in experiment [3] and 0.4% in experiment [4]. In addition, the figures for the IC50 in experiment [2] and in experiment [3] were 0.912 µM and 0.631 µM, respectively.
Take `Cc1cc(N2C(=O)C3(CCC3)N(c3ccc(OCCc4ccccn4)c(F)c3)C2=S)cnc1C#N` [Cpd 32, 5-[8-[3-fluoro-4-[2-(2-pyridyl)ethoxy]phenyl]-5-oxo-7-thioxo-6,8-diazaspiro[3.4]octan-6-yl]-3-methyl-pyridine-2-carbonitrile]: the EC50 in experiment [1] (setting [5]) and in experiment [4] (setting [7]) was > 15.1 µM throughout. The Emax in experiment [1] (setting [8]) was 0.1%; in experiment [2] (setting [6]), 102%; in experiment [3] (setting [6]), 101%; in experiment [4] (setting [8]), 0.7%. Also, the IC50 was 0.49 µM in experiment [2] and 0.282 µM in experiment [3].
On to `N#Cc1ncc(N2C(=O)C3(CCC3)N(c3ccc(C(=O)NCCCN4CCCC4)c(F)c3)C2=S)cc1C(F)(F)F` [Cpd 118, 4-[6-[6-cyano-5-(trifluoromethyl)-3-pyridyl]-5-oxo-7-thioxo-6,8-diazaspiro[3.4]octan-8-yl]-2-fluoro-N-(3-pyrrolidin-1-ylpropyl)benzamide], for which the EC50 in experiment [1] (setting [5]) and in experiment [4] (setting [7]) was > 15.1 µM each time. The Emax in experiment [1] (setting [8]) is 3.9%; in experiment [2] (setting [6]) it was 101%; in experiment [3] (setting [6]), 99.4%; in experiment [4] (setting [8]), 0.4%. The IC50 was 1.1 µM in experiment [2] and 0.158 µM in experiment [3].
For `Cc1ccc(CNC(=O)c2ccc(N3C(=S)N(c4cnc(C#N)c(C(F)(F)F)c4)C(=O)C34CCC4)cc2F)o1` [Cpd 26, 4-[6-[6-cyano-5-(trifluoromethyl)-3-pyridyl]-5-oxo-7-thioxo-6,8-diazaspiro[3.4]octan-8-yl]-2-fluoro-N-[(5-methyl-2-furyl)methyl]benzamide], the EC50 in experiment [1] (setting [5]) and in experiment [4] (setting [7]) was > 15.1 µM in each case. For the same compound, the Emax in experiment [1] (setting [8]) was 0.3%; in experiment [2] (setting [6]) it was 97.9%; in experiment [3] (setting [6]), 97.9%; in experiment [4] (setting [8]), 1.1%. Further, the IC50 in experiment [2] was 0.813 µM; in experiment [3] it was 0.891 µM.
